Here are results for one molecule from PMC4821887, “Identification of chemicals that mimic transcriptional changes associated with autism, brain aging and neurodegeneration” (Nature Communications, 2016).

In test [1] the test system is Rest, Gsta4, Gstm1, Hmox1 transcripts in cortical cultures. Nature of the test: Quantitative real-time PCR of cluster 2 upregulated genes. The following applies: fenamidone 10 μM or indicated doses, 24 h, relative to vehicle. The format is cell-based, mouse. As to the method: Total RNA was extracted and purified using the RNeasy plus mini kit (Qiagen) following the manufacturer's instructions. RNA was quantified using Nanodrop 1000 (Thermo Scientific) and reverse transcribed using iScript Reverse Transcription Supermix (Bio-Rad). Quantitative real-time PCR analysis was performed in technical duplicates using SYBR Green PCR master mix (Applied Biosystems) in a 7500 Real-Time PCR instrument (Applied Biosystems). An amount of 10 ng of complementary DNA was used in each reaction. Fold change of expression of the target RNA in each treatment condition relative to the untreated sample were calculated by raising 2 to the power of −ΔΔCt. ΔΔCt was calculated by subtracting the ΔCt of the untreated sample to the ΔCt of each treatment condition. The ΔCt of each sample was calculated by subtracting the average Ct of Gapdh to the average Ct of the target RNA. The following primers were used at a final concentration of 0.5 μM:
Rest (F: 5′-[…]-3′, R: 5′-[…]-3′); Gsta4 (F: 5′-[…]-3′, R: 5′-[…]-3′); Gstm1 (F: 5′-[…]-3′, R: 5′-[…]-3′); Hmox1 (F: 5′-[…]-3′, R: 5′-[…]-3′); and Gapdh (F: 5′-[…]-3′, R: 5′-[…]-3′).
On the technique in general: Real-time PCR tracks product formation cycle by cycle.

In a further test the test system is cortical neurons. Nature of the test: Soma morphology (proportion of cells with altered soma morphology) in live-cell imaging. The format is cell-based, mouse. The note with it: 2 h treatment, vincristine 500 µM in Supplementary Fig. 10c.

On to `CSC1=N[C@@](C)(c2ccccc2)C(=O)N1Nc1ccccc1` [fenamidone], for which the “Expression of Nrf2 target antioxidant response genes and Rest (qRT-PCR validation)” value in test [1] is given as “Upregulated”. The “Soma swelling / aberrant cell morphology” value was “dose dependent” with cortical neurons and “swelling of neuronal soma” with cortical neurons (listed as Fenamidone).
